Measured values published in patent publication US5658884A, “Establishment of tonic ovarian estrogen secretion for extended therapeutic regimens” (The Medical College of Hampton Roads, priority 1995, dated 1997).
Where “and” joins values, the source holds several entries; their conditions need not be identical. Identical values can stand only once.

What was measured:
[1] = system: adult female cynomolgus monkeys; test: Part I dose-finding study: residual serum estradiol (RIA) during 14 days of daily im GnRH antagonist; type: in vivo; settings: 0.1 mg/kg im daily; individual monkeys for whom the dose was too much, predominately
Method: (§1) Eleven adult female cynomolgus monkeys having regular and presumably ovulatory menstrual cycles were entered into the study. Body weights were determined monthly. Menstrual bleeding and spotting were recorded daily by visual inspection of external genitalia and insertion of vaginal swabs using a saline moistened cotton-tipped applicator, respectively. Blood samples were collected from femoral vessels and the serum stored for subsequent RIA of estradiol and progesterone. Coefficients of variation for these assays were: 7.4 and 11.1; and 7.0 and 10.9%, respectively, for within and between assays. The GnRH antagonist (GnRHant) used was Nal-Glu: [Ac-D2NAL, 4ClDPhe^2, D3Pal^3, Arg^5, DGlu^6 (AA), DAla^10 ]-GnRH.
In Part I of the study, the object was to perform a brief dose-finding study that indicated residual serum estradiol levels in intact primates previously illustrating regular menstrual cycles. Specifically sought was an approximation of the minimal daily im dose of Nal-Glu sufficient to suppress circulating estradiol levels into the target range: less than 45 pg/ml but more than 35 pg/ml. Beginning on day 2 of the menstrual cycle, Nal-Glu GnRHant, suspended in sesame oil, was administered between 9 and 10 am in doses of 0.1 (n=5) and 0.3 mg/kg (n=6) for 14 days. Femoral blood was obtained daily under ketamine anesthesia. […]

[2] = system: adult female cynomolgus monkeys; test: Part II: titering the GnRHant dose to individual monkeys with periodic progesterone challenge tests (withdrawal bleeding versus amenorrhea, serum estradiol RIA); type: in vivo
Method: as §1
Concurrently, a pair of progesterone-loaded silastic implants were inserted sc during GnRHant treatment from day 20 and 30, and then removed. If withdrawal menses occurred during the next week, the individual Nal-Glu dose was raised to 0.1 mg/kg daily. […] Again, amenorrhea or withdrawal menses was recorded.
For definition, withdrawal bleeding was scored when blood was on the external genitalia for two or more consecutive days within the week following progesterone withdrawal. Spotting was scored when blood was evident only by coloration of the cotton swab upon insertion into the vagina.

pituitary-ovarian axis = settings: sufficient single dose, monkeys, follicular phase; cited from earlier work

Substance: [Ac-D2NAL, 4ClDPhe^2, D3Pal^3, Arg^5, DGlu^6 (AA), DAla^10 ]-GnRH [Nal-Glu]
- serum estradiols of some primates [1]: < 25 pg/mL
- mean serum estradiol concentrations ([2]; 8 monkeys after increase of the dose to 0.1 mg/kg im daily): approximately 40 pg/ml
- Amenorrhea Achieved (Monkeys) ([2]; first progesterone challenge test, withdrawal week days 31-37, all 11 monkeys at 0.05 mg/kg im daily): two and 2/11
- monkeys manifesting frank withdrawal menses ([2]; first progesterone challenge test, 0.05 mg/kg im daily): Nine
- serum estradiol ([2]; lone resistant monkey at 0.2 mg/kg im daily, ultimately): under 20 pg/ml
- Amenorrhea Achieved (Monkeys) ([2]; second progesterone challenge test, withdrawal week days 61-67, doses 0.05 or 0.1 mg/kg im daily): 10/11
- withdrawal outcome of the two monkeys that remained on 0.05 mg/kg ([2]; second progesterone challenge test, 0.05 mg/kg im daily): remained amenorrheic
- monkeys achieving withdrawal amenorrhea ([2]; second progesterone challenge test, the nine females raised to 0.1 mg/kg im daily on day 31): 8 of 9
- mean serum estradiol levels ([2]; the two primates amenorrheic at 0.05 mg/kg im daily, target zone 35 to 45 pg/ml): hovered in or near the target zone
- Amenorrhea Achieved (Monkeys) ([2]; third progesterone challenge test, withdrawal week days 91-97, doses 0.05, 0.1 or 0.2 mg/kg im daily): all eleven and 11/11
- Incidence of Spotting ([2]; week of progesterone withdrawal days 31-37, 0.05 mg/kg im daily): 13 days
- Incidence of Spotting ([2]; week of progesterone withdrawal days 61-67, 0.05 or 0.1 mg/kg im daily): 12 days
- Incidence of Spotting ([2]; week of progesterone withdrawal days 91-97, 0.05, 0.1 or 0.2 mg/kg im daily): 0 days

Substance: D-Ac-D-2-Nal^1 -DpClPhe^2 -D-3-Pal^3 -Ser^4 -NiLys^5 -D-NicLys^6 -Leu^7 -ILys^8 -Pro^9 -D-Ala^10 [antide]
- effect on the pituitary-ovarian axis (pituitary-ovarian axis): immediate and sustained inhibition of the pituitary-ovarian axis
